# Assay results: PubChem BioAssay (NCI)
#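 The compound was tested at five concentrations on cells cultured in 96-well plates, with a 48-hour exposure period. Definition used: TGI = concentration required for complete inhibition of growth.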
# Tests used:
# Assay in all cases: NCI anticancer screen, dose series, 48 h
# OVCAR-5 ovarian = system: OVCAR-5 ovarian
# KM12 colon = system: KM12 colon
# HOP-92 NSCLC = system: HOP-92 NSCLC
# M14 melanoma = system: M14 melanoma
# NCI-H23 lung = system: NCI-H23 lung
# A549 NSCLC = system: A549 NSCLC
# NCI-H522 lung = system: NCI-H522 lung
# U251 CNS = system: U251 CNS
# DU-145 prostate = system: DU-145 prostate
# K-562 leukemia = system: K-562 leukemia
SMILES,TGI (OVCAR-5 ovarian) [µM],TGI (KM12 colon) [µM],TGI (HOP-92 NSCLC) [µM],TGI (M14 melanoma) [µM],TGI (NCI-H23 lung) [µM],TGI (A549 NSCLC) [µM],TGI (NCI-H522 lung) [µM],TGI (U251 CNS) [µM],TGI (DU-145 prostate) [µM],TGI (K-562 leukemia) [µM]
CC(C)(C)c1cc(OCc2nn3c(Cc4ccccc4)nnc3s2)c(Cl)cc1OCc1nn2c(Cc3ccccc3)nnc2s1,> 100,> 100,52.9,> 100,> 100,> 100,> 100,> 100,> 100,> 100
CCCCCCCCCCCCCCC(O)C[N+](C)(CCO)CCO (stereo not given),7.92,4.23,5.76,3.66,20.7,34.3,5.03,2.89,23.6,> 38.1
CSc1ccn(C2CC(F)C(CO)O2)c(=O)n1 (stereo not given),> 100,> 100,> 100,> 100,> 100,> 100,> 100,> 100,> 100,> 100
Cc1cc(S(=O)(=O)Nc2nnc3cnc4ccccc4n23)c(S)cc1Cl,> 100,> 100,> 85.9,> 100,> 100,> 100,> 100,> 100,> 100,> 100
NC1=Nc2cc(Cl)ccc2Sc2nc3ccccc3n21,> 100,> 100,71,> 100,> 100,> 100,> 100,> 100,> 100,> 100
NC(CSSCC(N)=NCC12CC3CC(CC(C3)C1)C2)=NCC12CC3CC(CC(C3)C1)C2,34.2,29,32.7,50.2,32.3,31.3,38.6,29,32.5,27.2
O=C(/C=C(\S/C=C(/c1ccccc1)N1CCn2c(C(=O)c3ccccc3)c(C(=O)c3ccccc3)c(C(=O)c3ccccc3)c21)C(=O)c1ccccc1)c1ccccc1,> 10,> 10,> 10,> 10,> 10,> 10,> 10,> 10,> 10,> 10
O=c1[nH]cc(Cl)c(=O)[nH]1,> 100,> 100,> 100,> 100,> 100,> 100,> 100,> 100,> 100,> 100
COc1ccccc1NC(=O)CC(=O)N1N=C(N2c3ccccc3Sc3ccccc32)CC1c1ccccc1 (stereo not given),> 100,> 100,> 100,> 100,> 100,> 100,> 100,> 100,> 100,> 100
Nc1ncn2c(n1)nc1ccccc12,> 100,> 100,> 100,> 100,> 100,> 100,> 100,> 100,> 100,> 100
S=c1[nH]n2c(CCCCCCCCc3nnc4sc(=S)[nH]n34)nnc2s1,> 100,> 100,> 100,> 100,> 100,> 100,> 100,> 100,> 100,> 100
CC(=O)Oc1ccc2c(c1)CC[C@@H]1C2[C@@H](O[N+](=O)[O-])C[C@@]2(C)C1CC[C@@H]2O[N+](=O)[O-] (stereo not given in full),33.7,33.4,23.5,31.6,29.2,29.1,25.4,27.5,28.3,32.6
Clc1cccc(NN=Nc2ccc(-c3nc4ccccc4s3)cc2)c1,> 100,> 100,76.8,> 100,63.3,> 100,66.2,> 100,> 100,92.5
COc1cc2c3c(n(C)c(=O)c2cc1OC)-c1cc2c(cc1/C3=C\CCCI)OCO2,> 100,> 100,> 100,> 100,> 100,> 100,> 100,> 100,> 100,> 100
COC1=CC(=O)CC(C)C12Oc1c(Cl)c(OC)cc(OC)c1C2=O (stereo not given),> 100,> 100,98.3,> 65.7,> 100,> 100,23.1,> 100,> 100,> 66.4
CCCCCCCCCCCC[C@@H](O)[C@H]1CCC([C@H](O)CCCCC(=O)CCCCCCCC2=C[C@H](C)OC2=O)O1 (stereo not given in full),> 50,> 50,> 50,> 35.8,> 50,> 50,> 50,> 50,> 50,> 50
C=C1CC(Cn2ccc(=O)[nH]c2=O)(c2ccc(Cl)cc2)OC1=O (stereo not given),30.5,> 58.4,3.89,12.9,12.8,32.2,2.26,31.7,23.2,5.38
C=C1C(O)C[C@H](OC(C)=O)[C@]2(C)C1C(OC(C)=O)[C@]1(C(C)(C)O)CC(O)C(C)=C1[C@@H](OC(=O)c1ccccc1)C2OC(C)=O (stereo not given in full),> 10,> 10,> 10,> 10,> 10,> 10,> 10,> 10,> 10,> 10
